Bridge positions count the residues as written; N and C are the ends. Square brackets hold non-standard residues; d marks the D form. Peptide text beside a SMILES is read from it. I, II: the chains in the order shown. hArg = N=C(N)NCCCC[C@H](N)C(=O)O; Ac5c = NC1(C(=O)O)CCCC1; Aib = CC(C)(N)C(=O)O
Legend:
ovariectomized (OVX) rat = experiment: OVX rat model, bone strength measurements; assay type: in vivo; details: for bone strength of the femoral head in a compression test: FIG. 10; for bone strength of the femoral head in a compression test / bone strength of the femur in a three-point bending test versus vehicle-treated OVX animals: all doses; for bone strength of the femur, shaft region and femoral head region, versus vehicle-treated OVX-group: FIGS. 10 and 11
Description: One hundred and seventy-eight female Fisher rats were used for the experiment. Initially the animals were housed in Macrolon type 3 cages (2 rats/cage) under controlled conditions (20° C., 55-85% humidity) following a 12:12-hrs light/dark cycle with light on at 6 am. The animals were fed ad libitum with standard Altromin No. 1324 diet (Chr. Petersen, Ringsted, Denmark). The animals had free access to drinking water (domestic quality tap water added citric acid to pH≈3). At the time of inclusion the animals were 6 months old.
The week before OVX the animals were stratified according to body weight into two groups that were subjected to either OVX (140 animals) or sham operation (38 animals). Rats were anaesthetized with Hypnorm-Dormicum and the ovariectomy was performed through a midline laparotomy. Sham-operated animals were subjected to midline laparotomy, and the ovaries were exposed but not removed (sham). This group served as an age matched non-osteoporotic control group. A microchip was implanted into each rat during surgery, in order to allow identification of the animals.
To allow osteopenia to develop before treatment start, animals were housed for 7 weeks (pre-treatment period) without pharmacological treatment. At the end of the pre-treatment period, sham- and OVX-operated rats were stratified according to bodyweight and divided into six groups of 13-20 animals each (Table 7). At this point, one OVX group (N=20) and one sham group (N=20) were sacrificed. These control groups established baseline levels of bone mineral density (BMD). Furthermore, samples were stored for possible later analysis of bone markers, bone strength, histomorphometry and μCT scans.
For the following 6 weeks one sham group and one OVX group were subjected to vehicle administration (40 mM sodium acetate, 45 mM histidine and 3.9% mannitol, pH 5.5, 300 mOsm/kg). Five OVX groups were treated with increasing doses of the cyclic PTH(1-17) analogue SEQ ID NO: 19. Another OVX group was treated with SEQ ID NO: 33 (Table 7). All drugs were given as s.c. injections. After 6 weeks of treatment the animals were sacrificed. Spine, tibia and femur were collected for analysis of BMD by DEXA-scan and bone samples were stored for later bone strength measurements.
Lumbar vertebrae (L4-L5-L6-S1), left femur and tibia were collected, cleaned, packed in saline moistened gaze in a tube and stored at −20° C. for later ex vivo bone strength measurements. Right femur and tibia as well as lumbar vertebrae (T13-L1-L2-L3) and caudal vertebrae (S2-S3-C1-C2-C3) were collected, cleaned and stored in 70% ethanol for analysis of bone mineral density (BMD) and possible later histomorphometry and/or μCT scanning.
Bone strength measurements were performed on a compression device (Lloyd Instruments, Fareham, UK). Bones were positioned with the help of custom-made holders, in order to achieve maximal reproducibility. Maximal force to fracture was determined.
Overall comparison among groups was performed using one-way ANOVA for one-way classified data (BMD). For individual comparisons among groups, post-hoc analysis was performed using Fisher's least significant difference test. Differences were considered significant at the 5% level. All data are presented as mean±SEM.

Saos-2 PTH1R = biological target: T1, Saos-2 PTH1R (Homo sapiens, UniProt Q03431); experiment: cAMP-efficacy assay in Saos-2 cells; assay type: cell-based; details: for Emax ± SEM: relative effect to the control (SEQ ID NO: 32)
T1 construct: endogenous in cells; host or cells: Saos-2
T1 sequence (Q03431 27-593): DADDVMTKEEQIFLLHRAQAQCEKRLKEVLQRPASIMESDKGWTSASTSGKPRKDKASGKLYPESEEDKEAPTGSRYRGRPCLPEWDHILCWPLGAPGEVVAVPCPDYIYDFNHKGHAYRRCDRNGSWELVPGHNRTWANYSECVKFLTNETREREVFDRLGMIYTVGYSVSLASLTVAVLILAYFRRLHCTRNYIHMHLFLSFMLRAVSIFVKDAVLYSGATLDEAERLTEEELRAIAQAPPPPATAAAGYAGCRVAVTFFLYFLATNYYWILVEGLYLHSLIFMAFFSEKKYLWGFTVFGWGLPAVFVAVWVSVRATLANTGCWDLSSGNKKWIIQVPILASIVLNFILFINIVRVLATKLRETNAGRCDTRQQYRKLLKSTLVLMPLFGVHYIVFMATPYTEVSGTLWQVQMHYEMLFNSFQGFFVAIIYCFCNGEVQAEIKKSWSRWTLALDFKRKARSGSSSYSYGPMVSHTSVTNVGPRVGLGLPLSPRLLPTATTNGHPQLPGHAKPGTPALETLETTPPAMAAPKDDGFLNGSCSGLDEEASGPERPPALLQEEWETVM
Outline: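 Saos-2 cells, grown two days after seeding at 50,000 cells/well, were exposed to peptide for 15 min at 37 °C in Tyrode's buffer with 0.1% BSA and 100 μM IBMX. After stopping with cold HCl, cAMP was measured by radioimmunoassay FlashPlate. EC50, pEC50, Hill slope and Emax came from a four-parameter sigmoidal fit.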

Row | Structure (SMILES) | bone strength of the femoral head in a compression test (ovariectomized (OVX) rat) | bone strength of the femur in a three-point bending test versus vehicle-treated OVX animals (ovariectomized (OVX) rat; FIG. 11) | bone strength of the femur in a three-point bending test versus vehicle-treated sham animals (ovariectomized (OVX) rat; FIG. 11, doses higher than 20 nmol/kg/d) | bone strength of the femur, shaft region and femoral head region, versus vehicle-treated OVX-group (ovariectomized (OVX) rat) | bone strength versus vehicle-treated sham-operated group (ovariectomized (OVX) rat; doses greater than 20 nmol/kg/d) | EC50 (Saos-2 PTH1R; cAMP, 100 μM IBMX, 37° C. 15 min, suffix of label = salt tested) [µM] | Emax ± SEM (Saos-2 PTH1R) | bone strength compared to vehicle-treated OVX-group (ovariectomized (OVX) rat; 5 nmol/kg/d)
1 | CC[C@H](C)[C@H](NC(=O)[C@H](CCC(=O)O)NC(=O)C(C)(C)NC(=O)[C@@H](NC(=O)C1(N)CCCC1)C(C)C)C(=O)N[C@@H](CCC(N)=O)C(=O)N[C@@H](CC(C)C)C(=O)N[C@@H](CC(C)C)C(=O)N[C@@H](Cc1c[nH]cn1)C(=O)N[C@@H](CCC(N)=O)C(=O)N[C@@H](CCCCNC(=N)N)C(=O)N[C@@H](C)C(=O)N[C@H]1CCCCNC(=O)C[C@@H](C(N)=O)NC(=O)[C@H](CC(N)=O)NC(=O)[C@H](CC(C)C)NC(=O)[C@H](Cc2c[nH]c3ccccc23)NC1=O [SEQ ID NO: 19, H-Ac5c-Val-Aib-Glu-Ile-Gln-Leu-Leu-His-Gln-Har-Ala-Lys( )-Trp-Leu-Asn-Asp( )-NH2] (H-[Ac5c]V[Aib]EIQLLHQ[hArg]AKWLND-NH2; lactam 13-17) | higher than in vehicle-treated OVX and sham animals at all doses | higher than in vehicle-treated OVX animals at all doses | increased strength compared to vehicle-treated sham animals | significantly increased | significantly increased | 0.0102 | 1.05 ± 0.04 | –
2 | CC[C@H](C)[C@H](NC(=O)[C@H](CCC(=O)O)NC(=O)C(C)(C)NC(=O)[C@@H](NC(=O)C1(N)CCCC1)C(C)C)C(=O)N[C@@H](CCC(N)=O)C(=O)N[C@@H](CC(C)C)C(=O)N[C@@H](CCSC)C(=O)N[C@@H](Cc1c[nH]cn1)C(=O)N[C@@H](CCC(N)=O)C(=O)N[C@@H](CCCCNC(=N)N)C(=O)N[C@@H](C)C(=O)N[C@H]1CCCCNC(=O)C[C@@H](C(N)=O)NC(=O)[C@H](CC(C)C)NC(=O)[C@H](Cc2c[nH]c3ccccc23)NC(=O)[C@@H](NC(=O)[C@H](C)NC(=O)[C@H](CCCCNC(=N)N)NC(=O)[C@H](CCC(N)=O)NC(=O)[C@H](Cc2c[nH]cn2)NC(=O)[C@H](CCSC)NC(=O)[C@H](CC(C)C)NC(=O)[C@H](CCC(N)=O)NC(=O)[C@@H](NC(=O)[C@H](CCC(=O)O)NC(=O)C(C)(C)NC(=O)[C@@H](NC(=O)C2(N)CCCC2)C(C)C)[C@@H](C)CC)CCCCNC(=O)C[C@@H](C(N)=O)NC(=O)[C@H](CC(C)C)NC(=O)[C@H](Cc2c[nH]c3ccccc23)NC1=O [SEQ ID NO: 33, (H-Ac5c-Val-Aib-Glu-Ile-Gln-Leu-Met-His-Gln-Har-Ala-Lys( )-Trp-Leu-Asp( )-NH2)2] (I: H-[Ac5c]V[Aib]EIQLMHQ[hArg]AKWLD-NH2 / II: H-[Ac5c]V[Aib]EIQLMHQ[hArg]AKWLD-NH2; amide I:13-II:16, I:16-II:13 (inferred)) | higher than in vehicle-treated OVX and sham animals at all doses | higher than in vehicle-treated OVX animals at all doses | – | significantly increased | – | – | 1.10 ± 0.04 | significantly increased

Reference: patent US20100048462A1, “TRUNCATED PTH PEPTIDES WITH A CYCLIC CONFORMATION” (Zealand Pharma A/S, priority 2006, published 2010)
